# Reference: US11485725B2, “Derivatives of piperlongumine and uses thereof” (Auransa Inc., priority 2017, dated 2022)
# Read-outs that look alike come from different tables or passages of the source.
# Columns and labels:
# [1] = tested on: DU4475; assay: In vitro cell viability assay (CellTiter-Glo, ATP levels), triple negative breast cancer cells; type: cell-based; details: 7-day incubation, CellTiter-Glo, average values, read-out: DU4475 IC50
# Protocol: (§1) In Vitro Cell Viability Assay
# (§2) The present disclosure provides a method for inhibiting cell viability, as measured by ATP levels. The method for inhibiting cell viability is drawn to contacting various cancer cells with the compounds described herein at various concentrations. The cancer cell lines were maintained in culture conditions at 37° C. in an atmosphere of 5% CO2 in air. The cells growing in an exponential growth phase were harvested and counted for plating. Compounds were incubated in two cancer cell types representing multiple myeloma (MOLP-8) and triple negative breast cancer (DU4475). Cells were plated at an optimized cell numbers per well in 96-well plates and allowed to attach to the plates overnight at approximately 80% confluency.
# (§3) After addition of compounds, plates were incubated for 7-day. At the end of incubation period on day 8, media was removed and replaced with a solution of CellTiter-Glo™ reagent (Promega®) according to protocol. Luminescence was read using an EnVision® multi-label plate reader (Perkin-Elmer®), and signal intensity was calculated relative to positive and negative control wells. Cisplatin was included as the positive control. A dose-response calculation was performed in a non-linear regression fit and by using the Hill equation to calculate a concentration-response curve and 50% inhibitory concentration (IC50) values for each compound.
# (§4) The average IC50 values of compounds 1-15 in multiple myeloma (MOLP-8) and triple negative breast cancer (DU4475) cells are shown in Table 1.
# [2] = tested on: HCT116 (colorectal cancer) cells; assay: Resazurin-based cell viability assay using colorectal cancer cells
# Protocol: Determination of Potency of Compounds in Cell Viability Assay Using Colorectal Cancer Cells
# The blue dye resazurin-based assay was performed to determine cell viability and used according to manufacture protocol (Sigma®). HCT116 (colorectal cancer) cells were seeded in the DMEM medium (10% FBS serum). Approximately 1,500 cells were plated per well in 96 well plates. Cells were allowed to grow at 37° C. for 24 hr in 5% CO2 environment in a humidified incubator. Serially diluted compounds (100 μL) were added to the culture plate after 24 hr. After addition of compounds, plates were incubated for 72 hr. Experiment was terminated at the designated incubation time by replacing the medium with 100 μL of 1 mM of resazurin (Sigma®) prepared in culture medium (DMEM) and were further incubated in culture conditions for 4-6 hours. Fluorescence was recorded using a multimodal plate reader (Biotek Synergy Neo®) at an excitation wavelength of 535 nm and emission wavelength of 590 nm to obtain relative fluorescence units. Data analysis was done by subtracting the background fluorescence (medium blank) value from each reading and then normalizing with the vehicle control (DMSO treated cells) to obtain percent survival/proliferation. IC50 was calculated from percent survival values using GraphPad Prism® (see Table 1).
# [3] = tested on: MOLP-8; assay: In vitro cell viability assay (CellTiter-Glo, ATP levels), multiple myeloma cells; type: cell-based; details: 7-day incubation, CellTiter-Glo, average values, read-out: MOLP-8 IC50
# Protocol: as §1, §2, §3, §4
# [4] = Homo sapiens, HCT-116, 72 hr incubation
SMILES,"IC50 ([1]; Homo sapiens, DU-4475, 168 h) [nM]","IC50 [2, 4] [nM]","IC50 ([3]; Homo sapiens, MOLP-8, 168 h) [nM]",IC50 [1] [nM],"IC50 ([2]; 72 hr incubation, read-out: HCT 116 IC50) [nM]",IC50 [3] [nM]
"CC(C)(C)OC(=O)N1CCC(/C=C/C(=O)N2CCC=CC2=O)CC1 [Compound 19, tert-butyl (E)-4-(3-oxo-3-(6-oxo-3,6-dihydropyridin-1(2H)-yl)prop-1-en-1-yl)piperidine-1-carboxylate]",820,1970,410,,,
"O=C1C=CCCN1C(=O)/C=C/C1CCNCC1 [Compound 20, (E)-1-(3-(piperidin-4-yl)acryloyl)-5,6-dihydropyridin-2(1H)-one]",1320,2130,690,,,
"COc1cc(/C=C/C(=O)N2CC(O)C=CC2=O)cc2c1OCCO2 (stereo not drawn) [Compound 25, 5-hydroxy-1-[(2E)-3-(8-methoxy-2,3-dihydro-1,4-benzodioxin-6-yl)prop-2-enoyl]-5,6-dihydropyridin-2(1H)-one]",1770,4610,370,,,
"O=C1C=CCCN1C(=O)C=C(c1ccccc1)c1ccccc1 [Compound 29, 1-(3,3-diphenylacryloyl)-5,6-dihydropyridin-2(1H)-one]",1720,6400,2700,,,
"COc1cc(/C=C/C(=O)N2CC(C)(C)C=CC2=O)cc2c1OCCO2 [Compound 30, (E)-1-(3-(8-methoxy-2,3-dihydrobenzo[b][1,4]dioxin-6-yl)acryloyl)-5,5-dimethyl-5,6-dihydropyridin-2(1H)-one]",5500,9900,2800,,,
"O=C1C=CC(O)CN1C(=O)/C=C/c1ncccn1 (stereo not drawn) [Compound 32, 5-hydroxy-1-[(2E)-3-(pyrimidin-2-yl)prop-2-enoyl]-5,6-dihydropyridin-2(1H)-one]",1490,7200,380,,,
"CC1(C)C=CC(=O)N(C(=O)/C=C/c2ncccn2)C1 [Compound 33, (E)-5,5-dimethyl-1-(3-(pyrimidin-2-yl)acryloyl)-5,6-dihydropyridin-2(1H)-one]",1300,4070,560,,,
"O=C(/C=C/c1ncccn1)N1CCC=C(Cl)C1=O [Compound 35, (E)-3-chloro-1-(3-(pyrimidin-2-yl)acryloyl)-5,6-dihydropyridin-2(1H)-one]",210,380,80,,,
"O=C1C=CC(F)CN1C(=O)/C=C/c1ncccn1 (stereo not drawn) [Compound 37, (E)-5-fluoro-1-(3-(pyrimidin-2-yl)acryloyl)-5,6-dihydropyridin-2(1H)-one]",420,870,110,,,
"O=C(/C=C/c1ncccn1)N1CCC=C(Br)C1=O [Compound 40, 3-bromo-1-[(2E)-3-(pyrimidin-2-yl)prop-2-enoyl]-5,6-dihydropyridin-2(1H)-one]",100,360,40,,,
"CC1C=CC(=O)N(C(=O)/C=C/c2ncccn2)C1 (stereo not drawn) [Compound 43, (E)-5-methyl-1-(3-(pyrimidin-2-yl)acryloyl)-5,6-dihydropyridin-2(1H)-one]",530,1270,280,,,
"O=C1C=CCCN1C(=O)/C=C/C1CCN(CC2CC2)CC1 [Compound 44, (E)-1-(3-(1-(cyclopropylmethyl)piperidin-4-yl)acryloyl)-5,6-dihydropyridin-2(1H)-one]",1050,1350,490,,,
"O=C1C=CCCN1C(=O)/C=C/C1CCN(C2COC2)CC1 [Compound 45, (E)-1-(3-(1-(oxetan-3-yl)piperidin-4-yl)acryloyl)-5,6-dihydropyridin-2(1H)-one]",1350,3240,720,,,
"COc1cc(/C=C(\C)C(=O)N2CCC=CC2=O)cc2c1OCCO2 [Compound 55, 1-[(2E)-3-(8-methoxy-2,3-dihydro-1,4-benzodioxin-6-yl)-2-methylprop-2-enoyl]-5,6-dihydropyridin-2(1H)-one]",830,1960,580,,,
"O=C1C=CCCN1C(=O)/C=C/C1CCN(S(=O)(=O)c2ccccc2)CC1 [Compound 57, (E)-1-(3-(1-(phenylsulfonyl)piperidin-4-yl)acryloyl)-5,6-dihydropyridin-2(1H)-one]",530,1360,680,,,

# Next, values leading:
"IC50 ([1]; Homo sapiens, DU-4475, 168 h) [nM]","IC50 [2, 4] [nM]","IC50 ([3]; Homo sapiens, MOLP-8, 168 h) [nM]",IC50 [1] [nM],"IC50 ([2]; 72 hr incubation, read-out: HCT 116 IC50) [nM]",IC50 [3] [nM],SMILES
750,960,660,,,,"Cc1noc(/C=C/C(=O)N2CCC=CC2=O)n1 [Compound 16, (E)-1-(3-(3-methyl-1,2,4-oxadiazol-5-yl)acryloyl)-5,6-dihydropyridin-2(1H)-one]"
1160,5930,330,,,,"Cc1noc(/C=C/C(=O)N2CCCC=CC2=O)n1 [Compound 17, (E)-1-(3-(3-methyl-1,2,4-oxadiazol-5-yl)acryloyl)-1,5,6,7-tetrahydro-2H-azepin-2-one]"
2050,14200,680,,,,"O=C1C=CCCN1C(=O)/C=C/C1CC1 [Compound 18, (E)-1-(3-cyclopropylacryloyl)-5,6-dihydropyridin-2(1H)-one]"
530,3160,680,,,,"O=C1C=CCCN1C(=O)/C=C/c1ccc2c(n1)OCCO2 [Compound 21, (E)-1-(3-(2,3-dihydro-[1,4]dioxino[2,3-b]pyridin-6-yl)acryloyl)-5,6-dihydropyridin-2(1H)-one]"
1840,3850,2210,,,,"CC1(/C=C/C(=O)N2CCC=CC2=O)CCCCC1 [Compound 22, (E)-1-(3-(1-methylcyclohexyl)acryloyl)-5,6-dihydropyridin-2(1H)-one]"
,,,500,3160,700,"O=C1C=CCCN1C(=O)/C=C/c1ccc2c(n1)OCCO2 [Compound 23, (E)-1-(3-(2,3-dihydro-[1,4]dioxino[2,3-b]pyridin-6-yl)acryloyl)-5,6-dihydropyridin-2(1H)-one]"
680,1900,320,,,,"O=C1C=CCCN1C(=O)/C=C/c1cnc2c(c1)OCCO2 [Compound 24, (E)-1-(3-(2,3-dihydro-[1,4]dioxino[2,3-b]pyridin-7-yl)acryloyl)-5,6-dihydropyridin-2(1H)-one]"
630,3420,170,,,,"O=C1C=CCCCN1C(=O)/C=C/c1cnc2c(c1)OCCO2 [Compound 26, (E)-1-(3-(2,3-dihydro-[1,4]dioxino[2,3-b]pyridin-7-yl)acryloyl)-6,7-dihydro-1H-azepin-2(5H)-one]"
950,1900,760,,,,"O=C1C=CCCN1C(=O)/C=C/c1cccnn1 [Compound 27, (E)-1-(3-(pyridazin-3-yl)acryloyl)-5,6-dihydropyridin-2(1H)-one]"
1380,3530,490,,,,"CC(C)(C)/C=C/C(=O)N1CCC=CC1=O [Compound 28, (E)-1-(4,4-dimethylpent-2-enoyl)-5,6-dihydropyridin-2(1H)-one]"
560,1550,270,,,,"O=C1C=CCCCN1C(=O)/C=C/c1ccc2c(n1)OCCO2 [Compound 31, (E)-1-(3-(2,3-dihydro-[1,4]dioxino[2,3-b]pyridin-6-yl)acryloyl)-1,5,6,7-tetrahydroazepin-2-one]"
1430,3800,510,,,,"O=C1C=CCCN1C(=O)/C=C/C1CCOCC1 [Compound 34, 1-[(2E)-3-(tetrahydro-2H-pyran-4-yl)prop-2-enoyl]-5,6-dihydropyridin-2(1H)-one]"
1030,920,230,,,,"O=C1C=CCCCN1C(=O)/C=C/C1CCNCC1 [Compound 38, (E)-1-(3-(piperidin-4-yl)acryloyl)-6,7-dihydro-1H-azepin-2(5H)-one]"
730,2120,560,,,,"Cn1ccc(/C=C/C(=O)N2CCC=CC2=O)n1 [Compound 53, 1-[(2E)-3-(1-methyl-1H-pyrazol-3-yl)prop-2-enoyl]-5,6-dihydropyridin-2(1H)-one]"
1380,3600,600,,,,"Cn1cc(/C=C/C(=O)N2CCC=CC2=O)cn1 [Compound 56, (E)-1-(3-(1-methyl-1H-pyrazol-4-yl)acryloyl)-5,6-dihydropyridin-2(1H)-one]"
